Experimental data as given in patent US4018786A, “2-Aminothiazolines and a process for preparation thereof” (Centre d'Etudes pour l'Industrie Pharmaceutique, priority 1974, dated 1977).
Where a name gives a salt, the structure may show the parent alone.

Key:
[1] = Propyl-thiouracil test (hypocholesterolemic action); assay type: in vivo, rats
Description: a. Propyl-thiouracil test (RANNEY et Coll. J. Pharmacol. Exper. Therap. 1963, 142, 132-136)
The administration of propyl-thiouracil to adult rats renders them hypercholesterolemic; in effect, the plasmatic cholesterol rate has increased by about 15%. The testing is carried out on two groups of rats, the control group receiving the propyl-thiouracil only whilst the treated group also receives 100 mg/kg of the compounds to be tested, by the oral route.
On the 11th day of the experiment, the blood samples are taken and the β-lipoproteins, the free cholesterol and the total cholesterol measured.
a. Propyl-thiouracil test (Ranney et Coll. J. Pharmacol. Exper. Therap. 1963, 142, 132-136)
This test has shown the clearly favourable action of the derivatives according to the invention, at a dose of […].

[2] = Triton test (hypocholesterolemic action); assay type: in vivo, rat; details: for reduction of free cholesterol and of total cholesterol: 100 mg/kg oral, rat, 18 hours after Triton; for reduction of free cholesterol and total cholesterol levels: 50 mg/kg oral
Description: The intravenous injection of Triton W-R 1339 (an alkylaryl polyetheralcohol sold by Rohm and Haas) enables one to artifically increase, in the rat, certain lipidic fractions of serum and thus to evalute the hypocholesterolemic action of the compounds of the invention. […]
Eighteen hours later a blood sample is taken and the β-lipoproteins, the free cholesterol and the cholesterol are determined.
This test, which enables one to evaluate the hypocholesterolemic action of the derivatives to be tested, on serum levels of certain lipid fractions, has shown the remarkable effect of the compounds according to the invention.

[3] = LD50/24 h by the method of Miller & Tainter, intravenous route, mice; details: mouse, in vivo, read-out: LD50 /24 h/kg of body weight
[4] = system: carrageenin-induced oedema; test: Localised carrageenin-induced oedema method (anti-inflammatory action); assay type: in vivo, rat; details: for percentage of anti-inflammatory activity, First Hour / percentage of anti-inflammatory activity, Second Hour / percentage of anti-inflammatory activity, Third Hour / percentage of anti-inflammatory activity, Fifth Hour: 100 mg/kg oral per administration, rat; for percentage of anti-inflammatory activity, First Hour: 1 hour after carrageenin; for percentage of anti-inflammatory activity, Second Hour: 2 hours after carrageenin; for percentage of anti-inflammatory activity, Third Hour: 3 hours after carrageenin; for percentage of anti-inflammatory activity, Fifth Hour: 5 hours after carrageenin; for reduction of the inflammatory reaction, 1st hour / reduction of the inflammatory reaction, 2nd hour / reduction of the inflammatory reaction, 3rd hour / reduction of the inflammatory reaction, 4th hour / reduction of the inflammatory reaction, 5th hour: 50 mg/kg oral
Description: a. Localised carrageenin-induced oedema method
A 1% solution of carrageenin (0.1 ml) is injected into the metatarsal flexor muscles of the right hand rear paw of the rat at time "0".
The animals of the treated group also receive, by the oral route, 100 mg/kg of the compound to be tested, respectively 1 hour before and at the same time as the injection of the phlogogenic agent, then 1 hour and 21/2 hours after. The measurements made with the aid of a micrometer at the time "0" and 1 hour, 2 hours, 3 hours and 5 hours after the administration of the carrageenin, enable one to determine, in relation to time, the percentage of anti-inflammatory activity in relation to the control group.
a. method of localised carrageenin-induced oedema
The oral administration of […] of the derivatives to be tested produces a clear reduction of the inflammatory reaction provoked.

ovalbumin-induced oedema = test: Generalised ovalbumin-induced oedema method (anti-inflammatory action); assay type: in vivo, rats; details: for percentage of decrease of the oedematic reaction, Second Hour / percentage of decrease of the oedematic reaction, Third Hour: 100 mg oral, rats; for percentage of reduction of oedematic reaction, 1st hour / percentage of reduction of oedematic reaction, 2nd hour: 50 mg/kg oral
Description: b. Generalised ovalbumin-induced oedema method
A simultaneous intraperitoneal injection of 1 ml of ovalbumin and of 0.5 ml of an aqueous solution of Evans Blue at 1 ml per thousand by weight is administered to rats.
For comparative purposes, 100 mg of the compound to be tested is administered orally to the animals of the group to be treated, 1 hour before and at the same time as the ovalbumin. The intensity of the phenomenon thus provoked in noted by a FIG. 1 to 5 according to the intensity of the inflammatory syndrome.
Thus one determines the average of the oedematic intensity and the percentage of decrease of the oedematic reaction in relation to the control animals.
b. method of generalised ovalbumin-induced oedema
The percentages of reduction of oedematic reaction, in the test animals, in subjects treated by the oral route by the administration of […] of the compound to be tested show the clear anti-inflammatory action of the compounds according to the invention.

[5] = LD50/24 hours by the method of Miller & Tainter, intravenous route (derivatives 34 to 38, species not restated); details: in vivo, read-out: LD50 /24 hours /kg of body weight
[6] = 100 mg/kg oral, rats, 11th day, control 0.20 g/l
[7] = 100 mg/kg oral, rats, 11th day, control 0.86 g/l

| SMILES | LD50 at 24 h [3] | reduction of the inflammatory reaction, 1st hour [4] | reduction of the inflammatory reaction, 2nd hour [4] | reduction of the inflammatory reaction, 3rd hour [4] | reduction of the inflammatory reaction, 4th hour [4] | reduction of the inflammatory reaction, 5th hour [4] | percentage of reduction of oedematic reaction, 1st hour (ovalbumin-induced oedema) | percentage of reduction of oedematic reaction, 2nd hour (ovalbumin-induced oedema) | LD50 at 24 h [5] | Free cholesterol ([1]; 50 mg/kg, control 0.25) | Total cholesterol ([1]; 50 mg/kg, control 0.89) | reduction of free cholesterol and total cholesterol levels [2] | also measured |
| --- | --- | --- | --- | --- | --- | --- | --- | --- | --- | --- | --- | --- | --- |
| CCN(CC)CC=C1CN=C(NC2CCCCC2)S1 [Derivative No. 1, 2-cyclohexylamino 5-β-diethylaminoethylidene Δ^2-thiazoline] | 42 mg/kg |  |  |  |  |  |  |  |  |  |  |  | Free cholesterol [1, 6]: 0.14 g/L; Total cholesterol [1, 7]: 0.60 g/L; reduction of free cholesterol and of total cholesterol [2]: ~28% |
| CCN(CC)CCC1CN=C(NC2CCCCC2)S1 (stereo not drawn) [Derivative No. 3, 2-cyclohexlamino 5-β-diethylaminoethyl Δ^2-thiazoline] |  |  |  |  |  |  |  |  |  |  |  |  | percentage of anti-inflammatory activity, First Hour [4]: 37%; percentage of anti-inflammatory activity, Second Hour [4]: 39%; percentage of anti-inflammatory activity, Third Hour [4]: 46%; percentage of anti-inflammatory activity, Fifth Hour [4]: 48%; percentage of decrease of the oedematic reaction, Second Hour (ovalbumin-induced oedema): 54%; percentage of decrease of the oedematic reaction, Third Hour (ovalbumin-induced oedema): 60% |
| CCN(CC)CC=C1CN=C(NCC(O)c2ccccc2)S1 (stereo not drawn) [Derivative No. 4, 2-β-hydroxyphenethylamino 5-(N-diethylaminoethylidene) Δ^2-thiazoline] |  |  |  |  |  |  |  |  |  |  |  |  | percentage of anti-inflammatory activity, First Hour [4]: 39%; percentage of anti-inflammatory activity, Second Hour [4]: 40%; percentage of anti-inflammatory activity, Third Hour [4]: 49%; percentage of anti-inflammatory activity, Fifth Hour [4]: 53%; percentage of decrease of the oedematic reaction, Second Hour (ovalbumin-induced oedema): 59%; percentage of decrease of the oedematic reaction, Third Hour (ovalbumin-induced oedema): 65% |
| CCCCNc1ncc(CCN(CC)CC)s1 [Derivative No. 9, 2-butylamino 5-β-diethylaminoethyl thiazole dihydrochloride] |  |  |  |  |  |  |  |  |  |  |  |  | Free cholesterol [1, 6]: 0.15 g/L; Total cholesterol [1, 7]: 0.58 g/L; reduction of free cholesterol and of total cholesterol [2]: ~24% |
| CCN(CC)CC=C1CN=C(N(CC)C2CCCCC2)S1 [Derivative No. 10, 5-(β-diethylaminoethylidene) 2-N-ethyl N-cyclohexylamino) Δ^2-thiazoline oxalate] |  |  |  |  |  |  |  |  |  |  |  |  | percentage of anti-inflammatory activity, First Hour [4]: 44%; percentage of anti-inflammatory activity, Second Hour [4]: 47%; percentage of anti-inflammatory activity, Third Hour [4]: 52%; percentage of anti-inflammatory activity, Fifth Hour [4]: 56%; percentage of decrease of the oedematic reaction, Second Hour (ovalbumin-induced oedema): 57%; percentage of decrease of the oedematic reaction, Third Hour (ovalbumin-induced oedema): 64% |
| CCN(CC)CC=C1CN=C(N2CCN(C)CC2)S1 [Derivative No. 12, 5-(2-diethylaminoethylidene) 2-(4-methyl 1-piperazinyl) Δ^2-thiazoline tetrahydrochloride] | 90 mg/kg |  |  |  |  |  |  |  |  |  |  |  | Free cholesterol [1, 6]: 0.15 g/L; Total cholesterol [1, 7]: 0.61 g/L; reduction of free cholesterol and of total cholesterol [2]: ~26% |
| CCN(CC)CC=C1CN=C(N2CCOCC2)S1 [Derivative No. 14, 5-β-diethylaminoethylidene 2-morpholino Δ^2-thiazoline oxalate] | 105 mg/kg |  |  |  |  |  |  |  |  |  |  |  |  |
| CCN(CC)CC=C1CN=C(N(CC)CC)S1 [Derivative No. 15, 2-diethylamino 5-(2-diethylaminoethylidene) Δ^2-thiazoline dioxalate] |  |  |  |  |  |  |  |  |  |  |  |  | Free cholesterol [1, 6]: 0.12 g/L; Total cholesterol [1, 7]: 0.58 g/L; reduction of free cholesterol and of total cholesterol [2]: ~22% |
| CCN(CC)CC=C1CN=C(NC(C)(C)CC(C)(C)C)S1 [Derivative No. 18, 5-(β-diethylaminoethylidene) 2-(1,1,3,3-tetramethyl-butyl-amino) Δ^2-thiazoline] | 45 mg/kg |  |  |  |  |  |  |  |  |  |  |  |  |
| CCN(CC)CC=C1CN=C(NC)S1 [Derivative No. 21, 5-(β-diethylaminoethylidene) 2-methylamino Δ^2-thiazoline oxalate] | 92 mg/kg |  |  |  |  |  |  |  |  |  |  |  |  |
| CCN(CC)CCc1cnc(N(C)C2CCCCC2)s1 [Derivative No. 22, 5-β-diethylaminoethyl 2-(N-methyl N-cyclohexylamino)-thiazole dioxalate] |  |  |  |  |  |  |  |  |  |  |  |  | percentage of anti-inflammatory activity, First Hour [4]: 42%; percentage of anti-inflammatory activity, Second Hour [4]: 46%; percentage of anti-inflammatory activity, Third Hour [4]: 54%; percentage of anti-inflammatory activity, Fifth Hour [4]: 56%; percentage of decrease of the oedematic reaction, Second Hour (ovalbumin-induced oedema): 52%; percentage of decrease of the oedematic reaction, Third Hour (ovalbumin-induced oedema): 60% |
| Clc1ccc(N2CCN(CC=C3CN=C(NC4CCCCC4)S3)CC2)cc1 [Derivative No. 34, 5-[4-β-(parachlorophenyl)piperazinoethylidene] 2-cyclohexylamino Δ^2-thiazoline] |  | 40 | 44 | 50 | 53 | 55 | 58% | 62% | 35 mg/kg | 0.13 | 0.55 | ~34% |  |
| C(CN1CCN(c2ccccc2)CC1)=C1CN=C(NC2CCCCC2)S1 [Derivative No. 35, 2-cyclohexylamino 5-[4-β-(phenyl)piperazinoethylidene] Δ^2-thiazoline] |  | 45 | 46 | 55 | 57 | 58 | 62% | 65% | 48 mg/kg | 0.11 | 0.61 | ~29% |  |
| FC(F)(F)c1cccc(N2CCN(CC=C3CN=C(NC4CCCCC4)S3)CC2)c1 [Derivative No. 36] |  | 46 | 50 | 59 | 61 | 62 | 55% | 61% | 65 mg/kg | 0.13 | 0.63 | ~27% |  |
| Clc1ccccc1N1CCN(CC=C2CN=C(NC3CCCCC3)S2)CC1 [Derivative No. 37, 5-[4-β-(orthochlorophenyl)piperazinoethylidene]2-cyclohexylamino Δ^2-thiazoline] |  | 38 | 43 | 48 | 52 | 57 | 60% | 68% | 57 mg/kg | 0.10 | 0.60 | ~41% |  |
| COc1ccc(N2CCN(CC=C3CN=C(NC4CCCCC4)S3)CC2)cc1 [Derivative No. 38, 2-cyclohexylamino 5-[4-β-(paramethoxyphenyl)piperazinoethylidene] Δ^2-thiazoline] |  | 49 | 53 | 56 | 60 | 61 | 64% | 70% | 52 mg/kg | 0.09 g/L | 0.58 | ~44% |  |
